Here are results for ten compounds from US12398154B2, “Azaquinazoline pan-KRas inhibitors” (Mirati Therapeutics, Inc., priority 2020, dated 2025).

The structures appear in SMILES notation.

For one assay, the target named is T1, KRas G13D (Homo sapiens, UniProt P01116, G13D).
T1 construct: Biotinylated KRas (corresponding to amino acids 1-169, produced at Accelegan Inc.); biotin (biotinylated); purchased Accelegan Inc
The assay is described as follows: KRas binding assay (TR-FRET displacement).

The next assay addresses KRas G12R (Homo sapiens, UniProt P01116, G12R). Kind of assay: biochemical.
The target of a further assay is KRas G12A (Homo sapiens, UniProt P01116, G12A). The assay is described as follows: biochemical.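 Note: binding to KRas measured by TR-FRET displacement after one hour at room temperature, IC50 from a four-parameter fit of percent-of-control values.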
A further assay addresses KRas G12C (Homo sapiens, UniProt P01116, G12C). The assay is described as follows: biochemical.
A further assay has as its target KRas WT (Homo sapiens, UniProt P01116). Kind of assay: biochemical.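 Note: binding to KRas read as TR-FRET displacement after a one-hour room-temperature incubation, IC50 derived from percent-of-control values.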
Another assay concerns the target T2, KRas Q61H (Homo sapiens, UniProt P01116, Q61H).
T2 construct: Biotinylated KRas (corresponding to amino acids 1-169, produced at Accelegan Inc.); biotin (biotinylated); purchased Accelegan Inc
The assay is described as follows: KRas binding assay (TR-FRET displacement). For orientation: Time-resolved FRET reads energy transfer from a long-lived donor to a nearby acceptor.

For the next assay, the target named is KRas G12D (Homo sapiens, UniProt P01116, G12D). The assay is described as follows: biochemical.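 Note: TR-FRET displacement binding assay on KRas, read after a one-hour incubation at room temperature, IC50 fitted from percent-of-control values.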
A further assay deals with KRas G12S (Homo sapiens, UniProt P01116, G12S). Kind of assay: biochemical.
The target in another assay is KRas G12V (Homo sapiens, UniProt P01116, G12V). The assay is described as follows: biochemical.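 Note: KRas binding measured by TR-FRET displacement at room temperature, IC50 fitted from percent of control values.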
Another assay relates to pERK in HCT116 cells. The assay is described as follows: Inhibition of KRas phosphorylation of ERK (Cisbio HTRF pERK assay). The conditions noted are these: Homo sapiens, HCT-116, read-out: Inhibition (HTRF IC50) of KRas-mediated Phosphorylation of ERK, HCT116.
In the next assay the test system is pERK in ASPC1 cells. The assay is described as above. The conditions noted are these: Homo sapiens, ASPC1, read-out: Inhibition (HTRF IC50) of KRas-mediated Phosphorylation of ERK, AsPC-1.
The test system of a further assay is pERK in MKN1 cells. The description is as above. Particulars: Homo sapiens, MKN-1, 3 h, read-out: Inhibition (HTRF IC50) of KRas-mediated Phosphorylation of ERK, MKN1.
The next assay concerns pERK in H727 cells. The assay is described as above. The conditions noted are these: Homo sapiens, NCI-H727, read-out: Inhibition (HTRF IC50) of KRas-mediated Phosphorylation of ERK, H727.
Another assay concerns pERK in H460 cells. Described as above. The conditions noted are these: Homo sapiens, NCI-H460, read-out: Inhibition (HTRF IC50) of KRas-mediated Phosphorylation of ERK, H460.
The next assay relates to pERK in PSN1 cells. Described as above. Particulars: Homo sapiens, PSN1, 3 h, read-out: Inhibition (HTRF IC50) of KRas-mediated Phosphorylation of ERK, PSN1.

Sequence of KRas G12V (P01116 1-169 isoform P01116-2 G12V): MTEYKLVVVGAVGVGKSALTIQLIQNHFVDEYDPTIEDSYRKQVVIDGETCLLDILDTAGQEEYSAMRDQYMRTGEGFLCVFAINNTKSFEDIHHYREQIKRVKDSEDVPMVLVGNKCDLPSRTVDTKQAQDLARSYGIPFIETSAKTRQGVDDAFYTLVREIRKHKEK
Sequence of KRas G12D (P01116 1-169 isoform P01116-2 G12D): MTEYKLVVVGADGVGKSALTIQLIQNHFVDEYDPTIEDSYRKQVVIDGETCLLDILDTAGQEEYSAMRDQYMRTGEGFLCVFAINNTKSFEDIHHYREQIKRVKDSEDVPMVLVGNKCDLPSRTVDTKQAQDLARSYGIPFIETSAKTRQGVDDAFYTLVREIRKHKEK
Sequence of KRas G12C (P01116 1-169 isoform P01116-2 G12C): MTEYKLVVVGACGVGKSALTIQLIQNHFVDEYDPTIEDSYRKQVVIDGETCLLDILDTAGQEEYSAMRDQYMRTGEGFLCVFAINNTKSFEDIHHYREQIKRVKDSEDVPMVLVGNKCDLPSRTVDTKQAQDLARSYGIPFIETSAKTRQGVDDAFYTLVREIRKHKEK
Sequence of KRas WT (P01116 1-169 isoform P01116-2): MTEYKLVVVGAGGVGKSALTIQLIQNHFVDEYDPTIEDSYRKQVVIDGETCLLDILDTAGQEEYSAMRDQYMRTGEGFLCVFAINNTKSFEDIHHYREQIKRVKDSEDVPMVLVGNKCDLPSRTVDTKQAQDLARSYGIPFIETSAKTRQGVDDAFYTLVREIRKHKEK
Sequence of KRas G12A (P01116 1-169 isoform P01116-2 G12A): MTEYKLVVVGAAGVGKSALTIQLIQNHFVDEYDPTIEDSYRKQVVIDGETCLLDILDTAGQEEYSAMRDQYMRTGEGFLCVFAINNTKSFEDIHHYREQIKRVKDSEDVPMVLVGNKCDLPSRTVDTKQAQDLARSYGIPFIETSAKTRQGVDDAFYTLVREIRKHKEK
T2 sequence (P01116 1-169 isoform P01116-2 Q61H): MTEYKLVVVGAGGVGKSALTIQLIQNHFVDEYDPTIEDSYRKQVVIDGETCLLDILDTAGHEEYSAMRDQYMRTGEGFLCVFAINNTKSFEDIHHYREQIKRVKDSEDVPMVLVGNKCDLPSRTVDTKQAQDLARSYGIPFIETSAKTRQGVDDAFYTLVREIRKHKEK
T1 sequence (P01116 1-169 isoform P01116-2 G13D): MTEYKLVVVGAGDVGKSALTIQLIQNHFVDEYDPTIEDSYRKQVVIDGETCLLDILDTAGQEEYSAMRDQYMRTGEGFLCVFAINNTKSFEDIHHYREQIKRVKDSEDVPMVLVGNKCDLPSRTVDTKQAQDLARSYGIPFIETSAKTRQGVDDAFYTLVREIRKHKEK
Sequence of KRas G12R (P01116 1-169 isoform P01116-2 G12R): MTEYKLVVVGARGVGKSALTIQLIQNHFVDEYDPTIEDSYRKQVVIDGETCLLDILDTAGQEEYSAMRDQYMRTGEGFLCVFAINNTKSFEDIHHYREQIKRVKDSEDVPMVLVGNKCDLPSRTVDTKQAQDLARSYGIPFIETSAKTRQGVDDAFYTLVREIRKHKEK
Sequence of KRas G12S (P01116 1-169 isoform P01116-2 G12S): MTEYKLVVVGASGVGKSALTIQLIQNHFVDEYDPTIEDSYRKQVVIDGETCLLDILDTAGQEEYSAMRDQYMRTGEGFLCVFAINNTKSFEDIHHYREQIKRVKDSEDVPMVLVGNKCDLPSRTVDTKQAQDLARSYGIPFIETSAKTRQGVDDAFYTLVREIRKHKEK

In the case of `CNC(=O)c1cc2n(n1)CCCN(c1nc(OCC34CCCN3CCC4)nc3c(F)c(-c4cccc5cccc(F)c45)ncc13)C2` [Example 259, 5-(8-fluoro-7-(8-fluoronaphthalen-1-yl)-2-((hexahydro-1H-pyrrolizin-7a-yl)methoxy)pyrido[4,3-d]pyrimidin-4-yl)-N-methyl-5,6,7,8-tetrahydro-4H-pyrazolo[1,5-a][1,4]diazepine-2-carboxamide], the IC50 – broadly, the concentration that inhibits the measured activity by half – worked out at 3300 nM on KRas G13D; 0.769 µM at KRas G12R; 1.52 µM against KRas G12A; 0.825 µM on KRas G12C; 2.21 µM against KRas WT; 3180 nM on KRas Q61H. The IC50 at KRas G12D was found to be 0.158 µM; against KRas G12S it was 0.649 µM; on KRas G12V, 0.38 µM.

`CN(C)C(=O)c1cc2n(n1)CCCN(c1nc(OCC34CCCN3CCC4)nc3c(F)c(-c4cccc5cccc(F)c45)ncc13)C2` [Example 260, 5-(8-fluoro-7-(8-fluoronaphthalen-1-yl)-2-((hexahydro-1H-pyrrolizin-7a-yl)methoxy)pyrido[4,3-d]pyrimidin-4-yl)-N,N-dimethyl-5,6,7,8-tetrahydro-4H-pyrazolo[1,5-a][1,4]diazepine-2-carboxamide]: the IC50 at KRas G13D came out at 1170 nM; on KRas G12R, 0.455 µM; on KRas G12A, 0.294 µM; against KRas G12C it was 0.591 µM; at KRas WT it was 0.864 µM; on KRas Q61H, 1060 nM. Also, the IC50 on KRas G12D was 0.061 µM; on KRas G12S, 0.419 µM; against KRas G12V, 0.204 µM.

For `OCc1cc2n(n1)CCCN(c1nc(OCC34CCCN3CCC4)nc3c(F)c(-c4cccc5cccc(F)c45)ncc13)C2` [Example 261, (5-(8-fluoro-7-(8-fluoronaphthalen-1-yl)-2-((hexahydro-1H-pyrrolizin-7a-yl)methoxy)pyrido[4,3-d]pyrimidin-4-yl)-5,6,7,8-tetrahydro-4H-pyrazolo[1,5-a][1,4]diazepin-2-yl)methanol], the IC50 at KRas G13D stood at 9610 nM; against KRas G12R it was 2.61 µM; at KRas G12A, 5.74 µM; against KRas G12C, 2.39 µM; at KRas WT, 7.1 µM; at KRas Q61H, 10700 nM. For the same compound, the results for the IC50 on KRas G12D, against KRas G12S and against KRas G12V were 1.61 µM, 2.32 µM and 3.98 µM, respectively.

Consider `CCc1c(F)ccc2cc(O)cc(-c3ncc4c(N5CCCCC(O)C5)nc(OC[C@@]56CCCN5C[C@H](F)C6)nc4c3F)c12` (stereo partly drawn) [Example 347, 1-(7-(8-ethyl-7-fluoro-3-hydroxynaphthalen-1-yl)-8-fluoro-2-(((2R,7aS)-2-fluorohexahydro-1H-pyrrolizin-7a-yl)methoxy)pyrido[4,3-d]pyrimidin-4-yl)azepan-3-ol], for which the IC50 is 0.003 µM at KRas G12R; 0.195 µM in the assay with pERK in HCT116 cells; 0.118 µM in the assay on pERK in ASPC1 cells; 0.098 µM with pERK in MKN1 cells; 0.073 µM with pERK in H727 cells; 0.003 µM against KRas G12D. Further, the IC50 was 0.127 µM with pERK in H460 cells, 4.46 µM in the assay with pERK in PSN1 cells and 0.003 µM against KRas G12V.

As to `O=C1C[C@]2(CCCN(c3nc(OC[C@@]45CCCN4C[C@H](F)C5)nc4c(F)c(-c5cc(O)cc6ccc(F)c(Cl)c56)ncc34)C2)N1` [Example 416, (S)-6-(7-(8-chloro-7-fluoro-3-hydroxynaphthalen-1-yl)-8-fluoro-2-(((2R,7aS)-2-fluorohexahydro-1H-pyrrolizin-7a-yl)methoxy)pyrido[4,3-d]pyrimidin-4-yl)-1,6-diazaspiro[3.5]nonan-2-one], the IC50 is at most 0.002 µM on KRas G12R; 2.19 µM in the assay with pERK in HCT116 cells; 0.141 µM in the assay on pERK in ASPC1 cells; 0.003 µM in the assay with pERK in MKN1 cells; 0.083 µM in the assay on pERK in H727 cells; at most 0.002 µM on KRas G12D. Besides, the figures for the IC50 in the assay on pERK in H460 cells, in the assay on pERK in PSN1 cells and at KRas G12V were 0.283 µM, 1.3 µM and at most 0.002 µM, respectively.

On to `Oc1cc(-c2ncc3c(N4CC5CC(O)CC4C5)nc(OC[C@@]45CCCN4C[C@H](F)C5)nc3c2F)c2c(Cl)c(F)ccc2c1` (stereo partly drawn) [Example 422, 6-(7-(8-chloro-7-fluoro-3-hydroxynaphthalen-1-yl)-8-fluoro-2-(((2R,7aS)-2-fluorohexahydro-1H-pyrrolizin-7a-yl)methoxy)pyrido[4,3-d]pyrimidin-4-yl)-6-azabicyclo[3.2.1]octan-3-ol], for which the half-inhibitory concentration (IC50) against KRas G12R worked out at 0.005 µM; in the assay on pERK in HCT116 cells, 0.539 µM; in the assay on pERK in ASPC1 cells it was 0.43 µM; with pERK in MKN1 cells, 0.026 µM; in the assay with pERK in H727 cells, 0.112 µM; against KRas G12D, 0.007 µM. The half-maximal inhibitory concentration (IC50) with pERK in H460 cells was 0.303 µM; in the assay on pERK in PSN1 cells, 1.81 µM; at KRas G12V, at most 0.002 µM.

Regarding `CCc1c(F)ccc2cc(O)cc(-c3ncc4c(N5CCCc6nn(C(=O)NC(C)C)cc6C5)nc(OC[C@@]56CCCN5C[C@H](F)C6)nc4c3F)c12` [Example 479, 5-(7-(8-ethyl-7-fluoro-3-hydroxynaphthalen-1-yl)-8-fluoro-2-(((2R,7aS)-2-fluorohexahydro-1H-pyrrolizin-7a-yl)methoxy)pyrido[4,3-d]pyrimidin-4-yl)-N-isopropyl-5,6,7,8-tetrahydropyrazolo[4,3-c]azepine-2(4H)-carboxamide], the IC50 at KRas G12R stood at 0.012 µM; in the assay with pERK in ASPC1 cells it was 0.203 µM; with pERK in MKN1 cells, 0.328 µM; with pERK in H727 cells it was 0.115 µM; against KRas G12D it was 0.005 µM; with pERK in H460 cells, 0.987 µM. The IC50 in the assay on pERK in PSN1 cells is at least 10 µM; against KRas G12V, 0.004 µM.

Take `CCc1c(F)ccc2cc(O)cc(-c3ncc4c(N5CCCC6(C5)CS(=O)(=O)C6)nc(OC[C@@]56CCCN5C[C@H](F)C6)nc4c3F)c12` [Example 481, 6-(7-(8-ethyl-7-fluoro-3-hydroxynaphthalen-1-yl)-8-fluoro-2-(((2R,7aS)-2-fluorohexahydro-1H-pyrrolizin-7a-yl)methoxy)pyrido[4,3-d]pyrimidin-4-yl)-2-thia-6-azaspiro[3.5]nonane 2,2-dioxide]: the IC50 at KRas G12R came to 0.007 µM; in the assay on pERK in HCT116 cells, 3.15 µM; in the assay with pERK in ASPC1 cells, 0.387 µM; with pERK in MKN1 cells it was 0.049 µM; in the assay with pERK in H727 cells, 0.643 µM; on KRas G12D it was 0.004 µM. The 50% inhibitory concentration (IC50) in the assay on pERK in H460 cells is 0.827 µM; in the assay on pERK in PSN1 cells, 5.41 µM; against KRas G12V, 0.004 µM.

Turning to `CCc1c(F)ccc2cc(O)cc(-c3ncc4c(NCc5cc(C(=O)N(C)C)nn5C)nc(OC[C@@]56CCCN5C[C@H](F)C6)nc4c3F)c12` [Example 483, 5-(((7-(8-ethyl-7-fluoro-3-hydroxynaphthalen-1-yl)-8-fluoro-2-(((2R,7aS)-2-fluorotetrahydro-1H-pyrrolizin-7a(5H)-yl)methoxy)pyrido[4,3-d]pyrimidin-4-yl)amino)methyl)-N,N,1-trimethyl-1H-pyrazole-3-carboxamide], the 50% inhibitory concentration (IC50) was at most 0.002 µM against KRas G12R; 0.89 µM with pERK in ASPC1 cells; 0.083 µM in the assay with pERK in MKN1 cells; 0.339 µM in the assay with pERK in H727 cells; at most 0.002 µM against KRas G12D; 1.59 µM in the assay on pERK in H460 cells. In addition, the values for the half-inhibitory concentration (IC50) with pERK in PSN1 cells and against KRas G12V were at least 10 µM and at most 0.002 µM, respectively.

Consider `CCc1c(F)ccc2cc(O)cc(-c3ncc4c(NCC5CNS(=O)(=O)N5)nc(OC[C@@]56CCCN5C[C@H](F)C6)nc4c3F)c12` (stereo partly drawn) [Example 494, 3-(((7-(8-ethyl-7-fluoro-3-hydroxynaphthalen-1-yl)-8-fluoro-2-(((2R,7aS)-2-fluorohexahydro-1H-pyrrolizin-7a-yl)methoxy)pyrido[4,3-d]pyrimidin-4-yl)amino)methyl)-1,2,5-thiadiazolidine 1,1-dioxide], for which the half-maximal inhibitory concentration (IC50) against KRas G12R was at most 0.002 µM; in the assay on pERK in HCT116 cells, 2.17 µM; in the assay with pERK in ASPC1 cells, 0.354 µM; in the assay on pERK in MKN1 cells, 0.135 µM; in the assay with pERK in H727 cells, 0.795 µM; against KRas G12D, 0.003 µM. Further, the concentration for half-maximal inhibition (IC50) in the assay with pERK in H460 cells is 0.982 µM; in the assay with pERK in PSN1 cells, at least 10 µM; on KRas G12V it was at most 0.002 µM.
